Measurements taken from US20260273107A1, “COMPOUND PHARMACEUTICAL PREPARATION CONTAINING OIL COMPONENT COMPRISING POLYOXYETHYLENE STRUCTURE” (CHUGAI SEIYAKU KABUSHIKI KAISHA, priority 2022, published 2026).
Values after ≈ are worked out from the molar mass of the structure shown. Like-named read-outs stand apart in the source and are kept apart here. Bridge positions count the residues as written; N and C are the ends. Square brackets hold non-standard residues; d marks the D form. Peptide text beside a SMILES is read from it. * marks the point of attachment. hPhe(3,5-F2-4-CF3) = N[C@@H](CCc1cc(F)c(C(F)(F)F)c(F)c1)C(=O)O; hPhe(3-Cl-4-CF3) = N[C@@H](CCc1ccc(C(F)(F)F)c(Cl)c1)C(=O)O; NMePhe(4-Me) = CN[C@@H](Cc1ccc(C)cc1)C(=O)O; NMeGly(cPent) = CN[C@H](C(=O)O)C1CCCC1; NMeCha = CN[C@@H](CC1CCCCC1)C(=O)O; Hyp = O=C(O)[C@@H]1C[C@@H](O)CN1; NMeF = CN[C@@H](Cc1ccccc1)C(=O)O; NMeI = CC[C@H](C)[C@H](NC)C(=O)O; NMeD = CN[C@@H](CC(=O)O)C(=O)O; NMeL = CN[C@@H](CC(C)C)C(=O)O; NMeV = CN[C@H](C(=O)O)C(C)C; NMeA = CN[C@@H](C)C(=O)O; Piperidide = C1CCN(*)CC1; Ac5c = NC1(C(=O)O)CCCC1; Aze = O=C(O)[C@@H]1CCN1; Sar = CNCC(=O)O; tBu = CC(C)(C)*

Columns and labels:
[1] = Evaluation of Caco-2 membrane permeability; format: in vitro ADME; conditions: human, Apical FaSSIF/HBSS pH 6.0 to Basal HBSS 4% BSA pH 7.4, 180 minutes, after 18 to 24 hours preincubation, read-out: Caco2 (Papp)
Protocol: The permeability coefficient (Caco-2 Papp (cm/sec)) is calculated using a numerical expression 1.
[formula] • where dQ/dt is the permeation rate of the drug (amount of drug appearing on the Basal side per unit time), S is the total cell surface area, and C1 (0) is the concentration of drug added on the Apical side.
Caco-2 cells were cultured on 96-well Transwell for 3 weeks, then DMEM, FaSSIF (1% DMSO), and the compound were added to the Apical side, DMEM was added to the Basal side, and the cells were preincubated under 5% CO2 at 37° C. with shaking at 80 rpm for 18 to 24 hours. After the preincubation, the preincubation solutions on the Apical side and Basal side were sucked off and washed, a FaSSIF/HBSS buffer solution (1% DMSO) (pH 6.0) containing the compound was added to the Apical side, a HBSS buffer solution (4% BSA) (pH 7.4) was added to the Basal side, and measurement of membrane permeability was started. Each well was shaken under 5% CO2 at 37° C. and 80 rpm, and at 180 minutes after the start of shaking, a sample on the Basal side was collected, and the permeation amount was measured by LC/MS. From the permeation amount, the membrane permeability coefficient (Papp) was calculated. Note that the description “Caco-2 (cm/sec)” in the column in the table herein is used synonymously with “Papp (cm/sec)”.

[2] = Solubility of cyclic peptide compound in 50 mM phosphate buffer solution (pH 6.5), 37° C. (Example 3-3); format: physicochemical; conditions: shaking 22 to 24 hours, read-out: solubility in 50 mM phosphate buffer solution (PPB)
Protocol: Evaluation of the solubility of the cyclic peptide compound was performed. To lyophilized powder of the compound, a 50 mM phosphate buffer solution (PPB: Phosphate buffer, pH 6.5) was added, and after shaking (at 37° C., 1800 rpm, for 22 to 24 hours), the mixed solution was filtered through a filter, and the compound concentration of the filtrate was measured by LC/MS/MS. Solubility was calculated from the measured compound concentration. The solubilities of the compounds 3, 4, 6, 7, and 8 were 11 μg/mL, 1 μg/mL, 1 μg/mL, 15 μg/mL, and 5 μg/mL, respectively.

[3] = Solubility in aqueous solution containing 0.3% or 1% Cremophor EL (Example 3-3); format: physicochemical; conditions: 25° C., 22 to 24 hours
Protocol: Evaluation of the solubility of the cyclic peptide compound in the presence of a surfactant was performed. To lyophilized powder of the compound, an aqueous solution containing 0.3% or 1% Cremophor EL (CreEL) was added, and after shaking (at 25° C., 1000 rpm, for 22 to 24 hours), the mixed solution was filtered through a filter, and the compound concentration of the filtrate was measured by LC/UV. Solubility (μg/mL) was calculated from the measured compound concentration.

[4] = In vitro solubility evaluation in 50 mM phosphate buffer solution (PPB, pH 6.5), room temperature (Example 2-1); format: physicochemical; conditions: 50 mM phosphate buffer pH 6.5, room temperature, shaking 24 hours, no surfactant; read-out: solubilities, PPb
Protocol: (§1) To lyophilized powder of the compound, a 50 mM phosphate buffer solution (PPB: Phosphate buffer, pH 6.5) was added, and after shaking (at room temperature, 1800 rpm, for 24 hours), the mixed solution was filtered through a filter, and the compound concentration of the filtrate was measured by LC/MS/MS. […] To the compound powder, Cremophor EL (CreEL) (manufactured by Sigma-Aldrich Co., Ltd., “Kolliphor EL”, generic name: polyoxyethylene castor oil, average number of moles of ethylene oxide added 35), Vitamin E TPGS (manufactured by Sigma-Aldrich Co., Ltd.), an aqueous solution containing 1% TW80 (manufactured by Nacalai Tesque, Inc.), an aqueous solution containing 1.5% Ploxamer 188 (manufactured by BASF SE), or an aqueous solution containing 0.5% Triton X-100 was added, the mixed solution was stirred (at room temperature, for 20 hours) with a stirrer, and then filtered through a filter, and the compound concentration of the filtrate was measured by LC/UV. Solubility (μg/mL) was calculated from the measured compound concentration. […] From the above, CreEL and Vitamin E TPGS were selected as substrates that improve solubility independently of compounds, and evaluation of oral absorbability was performed.

[5] = Solubility in the presence of a surfactant (Example 2-1); format: physicochemical; conditions: room temperature, stirred 20 hours
Protocol: as §1

[6] = 0.3% Cremophor EL aqueous solution, read-out: solubility, 0.3% Cremophor EL
[7] = 1% Cremophor EL aqueous solution, read-out: solubility, 1% Cremophor EL

SMILES | Papp A→B at 180 min [1] [×10⁻⁶ cm/s] | solubility [2] [µg/mL] | solubility [3, 6] [µg/mL] | solubility [3, 7] [µg/mL] | solubility at 24 h [4] [µg/mL] | solubility at 20 h ([5]; 0.5% Triton X-100 aqueous solution, read-out: solubilities, TritonX-100 (0.5% aqueous solution)) [µg/mL] | solubility at 20 h ([5]; 1% Cremophor EL aqueous solution, read-out: solubilities, CreEL (1% aqueous solution)) [µg/mL] | solubility at 20 h ([5]; 1% TW80 aqueous solution, read-out: solubilities, TW80 (1% aqueous solution)) [µg/mL] | solubility at 20 h ([5]; 1% Vitamin E TPGS aqueous solution, read-out: solubilities, VitaminE TPGS (1% aqueous solution)) [µg/mL] | solubility at 20 h ([5]; 1.5% Poloxamer 188 aqueous solution, read-out: solubilities, Poloxamer 188 (1.5% aqueous solution)) [µg/mL]
CC(C)C[C@@H]1NC(=O)[C@H](Cc2ccccc2)N(C)C(=O)[C@H](COC(C)(C)C)NC(=O)[C@H](Cc2ccccc2)N(C)C(=O)[C@H](C)N(C)C(=O)[C@H](CC(C)C)N(C)C(=O)[C@@H](C)NC(=O)C[C@@H](C(=O)N2CCCCC2)NC(=O)[C@H](Cc2ccccc2)N(C)C(=O)[C@H]([C@@H](C)O)NC(=O)[C@H](CC(C)C)N(C)C1=O [Compound 4] ([dA][NMeL][NMeA][NMeF]S(tBu)[NMeF]L[NMeL]T[NMeF]D-Piperidide; lactam N-11) | 1.45 | 1 (≈ 0.697 µM) | 214 (≈ 149 µM) | 789 (≈ 550 µM) |  |  |  |  |  | 
CC[C@H](C)[C@@H]1NC(=O)[C@H](CC(C)C)N(C)C(=O)C[C@@H](C(=O)N(C)C)N(C)C(=O)[C@H]([C@@H](C)CC)N(C)C(=O)C2(CCCC2)NC(=O)[C@@H]2CCCN2C(=O)[C@H](CCc2ccc(C(F)(F)F)c(Cl)c2)NC(=O)CN(C)C(=O)[C@H](Cc2ccc(C)cc2)N(C)C(=O)[C@@H]2CCN2C(=O)[C@H](C)N(C)C1=O [Compound 7] ([NMeL]I[NMeA][Aze][NMePhe(4-Me)][Sar][hPhe(3-Cl-4-CF3)]P[Ac5c][NMeI][NMeD]-NMe2; lactam N-11) | 2.96 | 15 (≈ 10.6 µM) | 492 (≈ 349 µM) | 1640 (≈ 1170 µM) |  |  |  |  |  | 
CC[C@H](C)[C@@H]1NC(=O)[C@H](CC(C)C)N(C)C(=O)C[C@@H](C(=O)N2CCOCC2)N(C)C(=O)[C@H](C2CCCC2)N(C)C(=O)C2(CCCC2)NC(=O)[C@@H]2CCCN2C(=O)[C@H](CCc2ccc(C(F)(F)F)c(Cl)c2)NC(=O)CN(C)C(=O)[C@H](Cc2ccc(C(F)(F)F)cc2)N2CCCCC[C@@H](C2=O)N(C)C(=O)CN(C)C1=O [Compound 9] | 0.14 |  | 450 (≈ 291 µM) | 1510 (≈ 978 µM) |  |  |  |  |  | 
CCO[C@@H]1C[C@H]2C(=O)NC3(CCCC3)C(=O)N(C)[C@@H](C3CCCC3)C(=O)N(C)[C@H](C(=O)N(C)C)CC(=O)N(C)[C@@H](CC(C)C)C(=O)N[C@@H]([C@@H](C)CC)C(=O)N(C)[C@@H](C)C(=O)N3CC[C@H]3C(=O)N(C)[C@@H](CC3CCCCC3)C(=O)N(C)CC(=O)N[C@@H](CCc3cc(F)c(C(F)(F)F)c(F)c3)C(=O)N2C1 [Compound 8] ([NMeL]I[NMeA][Aze][NMeCha][Sar][hPhe(3,5-F2-4-CF3)][Hyp](Et)[Ac5c][NMeGly(cPent)][NMeD]-NMe2; lactam N-11) | 2.39 | 5 (≈ 3.43 µM) | 356 (≈ 244 µM) | 1340 (≈ 916 µM) |  |  |  |  |  | 
CC[C@H](C)[C@H]1C(=O)N[C@@H](COC(C)(C)C)C(=O)N(C)[C@@H](Cc2ccccc2)C(=O)N(C)[C@@H](C(C)C)C(=O)N[C@H](C(=O)N2CCCCC2)CC(=O)N(C)[C@@H](C)C(=O)N(C)[C@@H](Cc2ccccc2)C(=O)N[C@@H](CC(C)C)C(=O)N(C)[C@@H](CC(C)C)C(=O)N[C@@H]([C@@H](C)O)C(=O)N(C)CC(=O)N1C [Compound 2] ([NMeA][NMeF]L[NMeL]T[Sar][NMeI]S(tBu)[NMeF][NMeV]D-Piperidide; lactam N-11) | 5.99 |  |  |  | 11 (≈ 7.94 µM) | 498 | 1050 | 707 | 1950 | 31
